In PMC3656107, “Polymorphisms in the F8 Gene and MHC-II Variants as Risk Factors for the Development of Inhibitory Anti-Factor VIII Antibodies during the Treatment of Hemophilia A: A Computational Assessment” (PLoS Computational Biology, 2013):

Assays:
MHC-II DRB1*04:01 [1] = target: T1, MHC-II DRB1*04:01 (Homo sapiens, UniProt P01903+P01911, A100K/A169T/F76Y/I96L/K127E/L162R/M171V/N62H/P40V/Q125Y/R42H/S133A/S149N/S66Y/V115G/V209L/W38E); assay: Cell-free REVEAL class II binding assay; conditions: signal of test peptide as percentage of allele-specific positive control peptide, fluorescence, conformation-specific monoclonal antibody
Description: (§1) We used a proprietary high throughput, REVEAL binding assay (ProImmune, www.proimmune.com) to estimate the binding of individual test peptides to the following MHC-II variants: DRB1*03:01, DRB1*04:01, DRB1*07:01, DRB1*11:01, DRB1*15:01 and DRB1*15:03 [28]. Detection of a peptide binding to each MHC-II protein is based on the presence or absence of the native conformation of the MHC-peptide complex. The peptide-MHC-II complex is detected by an increase in a fluorescence signal due to the binding of a specific monoclonal antibody. Each test-peptide is given a score relative to a positive control peptide, which is a known T-cell epitope for that MHC-II molecule. The score is reported quantitatively as a percentage of the signal generated by the test peptide compared with the positive control peptide. Assay performance is evaluated by including in each set of measurements an intermediate control peptide which is known to bind the MHC-II molecule but with a lower affinity than the positive control peptide. Note that the positive control peptide used to determine the binding score is different from the positive control peptides depicted in the figures, which are known T-cell epitopes identified in the FVIII molecule.

MHC-II DRB1*07:01 [2] = target: T2, MHC-II DRB1*07:01 (Homo sapiens, UniProt P01903+P01911, A100R/A102G/A103Q/D57E/D86V/E43K/F76Y/K127E/L162R/M171V/P40G/Q125H/Q99D/R33Q/R42Y/R54Q/S133A/S66F/T210M/V115G/Y107V/Y59L/Y89S); assay: Cell-free REVEAL class II binding assay; conditions: signal of test peptide as percentage of allele-specific positive control peptide, fluorescence, conformation-specific monoclonal antibody
Description: as §1

MHC-II DRB1*03:01 [3] = target: T3, MHC-II DRB1*03:01 (Homo sapiens, UniProt P01903+P01911, A100K/A102G/A103R/A169T/F55Y/I96L/K41T/L162R/M171V/P40S/Q125H/Q178H/Q39Y/R42S/S66N/T106N/T262R/W38E/Y61H); assay: Cell-free REVEAL class II binding assay; conditions: signal of test peptide as percentage of allele-specific positive control peptide, fluorescence, conformation-specific monoclonal antibody
T3 sequence (P01903 26-254 limits assumed, other chains not shown): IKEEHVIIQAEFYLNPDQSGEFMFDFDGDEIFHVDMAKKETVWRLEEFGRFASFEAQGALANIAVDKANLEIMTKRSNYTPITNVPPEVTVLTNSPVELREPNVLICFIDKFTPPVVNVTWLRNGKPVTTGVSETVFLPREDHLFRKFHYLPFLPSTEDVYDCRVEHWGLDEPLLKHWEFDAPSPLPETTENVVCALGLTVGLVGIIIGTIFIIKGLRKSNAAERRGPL
Description: as §1

MHC-II DRB1*15:03 [4] = target: T4, MHC-II DRB1*15:03 (Homo sapiens, UniProt P01903+P01911, Y59H); assay: Cell-free REVEAL class II binding assay; conditions: signal of test peptide as percentage of allele-specific positive control peptide, fluorescence, conformation-specific monoclonal antibody
T4 construct: purchased ProImmune
T4 sequence (P01903 26-254, other chains not shown): as the sequence (P01903 26-254 limits assumed, other chains not shown) above
Description: as §1

MHC-II DRB1*15:01 [5] = target: T5, MHC-II DRB1*15:01 (Homo sapiens, UniProt P01903+P01911); assay: Cell-free REVEAL class II binding assay; conditions: signal of test peptide as percentage of allele-specific positive control peptide, fluorescence, conformation-specific monoclonal antibody
T5 construct: purchased ProImmune
Description: as §1

MHC-II DRB1*11:01 [6] = target: T6, MHC-II DRB1*11:01 (Homo sapiens, UniProt P01903+P01911, A100R/A169T/A87E/I96F/K41T/L162R/M171V/P40S/Q125H/Q178H/Q39Y/Q99D/R42S/S66Y/T262R/V115G/W38E); assay: Cell-free REVEAL class II binding assay; conditions: signal of test peptide as percentage of allele-specific positive control peptide, fluorescence, conformation-specific monoclonal antibody
T6 sequence (P01903 26-254 limits assumed, other chains not shown): as above
Description: as §1

MHC-II DRB1*04:01 [7] = target: T1, MHC-II DRB1*04:01; assay: Cell-free REVEAL class II stability assay; conditions: half-life of peptide-MHC-II complex (h, capped at 120) x Binding Score / 100, conformational ELISA
Description: (§2) We measured the half-life of each peptide-MHC-II complex using REVEAL peptide-MHC affinity assays developed by ProImmune Ltd. (Oxford, UK). On-rates of peptides were measured over a 96-hr period at 10°C. A unique positive control peptide was used for each MHC-II allele. Samples of assembling peptide-MHC complexes were taken at defined time points and snap-frozen in liquid nitrogen prior to analysis. Assembly of peptide-MHC complexes was detected using a conformational ELISA involving an anti-HLA antibody. On-rates were calculated by fitting data to a one-phase association curve: [drawing 1] To determine the off-rates of the peptides, samples of dissociating complexes were taken at defined time points and frozen in liquid nitrogen prior to analysis. Percent denaturation of peptide-MHC complexes was also detected using a conformational ELISA. Off-rates were calculated by fitting data to a one-phase dissociation curve: [drawing 2] On- and off-rate half-life values (t1/2) were calculated from the rate constant (k) using the following equation: [drawing 3] To obtain a normalized stability score, the half-life values were multiplied by the Binding Score (see above) and divided by 100.

MHC-II DRB1*07:01 [8] = target: T2, MHC-II DRB1*07:01; assay: Cell-free REVEAL class II stability assay; conditions: half-life of peptide-MHC-II complex (h, capped at 120) x Binding Score / 100, conformational ELISA
Description: as §2

MHC-II DRB1*03:01 [9] = target: T3, MHC-II DRB1*03:01; assay: Cell-free REVEAL class II stability assay; conditions: half-life of peptide-MHC-II complex (h, capped at 120) x Binding Score / 100, conformational ELISA
Description: as §2

MHC-II DRB1*15:03 [10] = target: T4, MHC-II DRB1*15:03; assay: Cell-free REVEAL class II stability assay; conditions: half-life of peptide-MHC-II complex (h, capped at 120) x Binding Score / 100, conformational ELISA
Description: as §2

MHC-II DRB1*15:01 [11] = target: T5, MHC-II DRB1*15:01; assay: Cell-free REVEAL class II stability assay; conditions: half-life of peptide-MHC-II complex (h, capped at 120) x Binding Score / 100, conformational ELISA
Description: as §2

MHC-II DRB1*11:01 [12] = target: T6, MHC-II DRB1*11:01; assay: Cell-free REVEAL class II stability assay; conditions: half-life of peptide-MHC-II complex (h, capped at 120) x Binding Score / 100, conformational ELISA
Description: as §2

Sequence: GPTKSDPRCLTRYYS [synthetic wild type FVIII 15 mer peptide]
- Binding Score (MHC-II DRB1*04:01 [1]): 0.5%
- Binding Score (MHC-II DRB1*07:01 [2]): 0.0%
- Binding Score (MHC-II DRB1*03:01 [3]): 4.8%
- Binding Score (MHC-II DRB1*15:03 [4]): 3.8%
- Binding Score (MHC-II DRB1*15:01 [5]): 63.6%
- Binding Score (MHC-II DRB1*11:01 [6]): 1.2%
- Stability Index (MHC-II DRB1*04:01 [7]): 0.1
- Stability Index (MHC-II DRB1*07:01 [8]): 0.0
- Stability Index (MHC-II DRB1*03:01 [9]): 1.6
- Stability Index (MHC-II DRB1*15:03 [10]): 0.0
- Stability Index (MHC-II DRB1*15:01 [11]): 7.2
- Stability Index (MHC-II DRB1*11:01 [12]): 0.0

Sequence: HKMVYEDTLTLFPFS [synthetic wild type FVIII 15 mer peptide]
- Binding Score (MHC-II DRB1*04:01 [1]): 24.2%
- Binding Score (MHC-II DRB1*07:01 [2]): 0.0%
- Binding Score (MHC-II DRB1*03:01 [3]): 56.5%
- Binding Score (MHC-II DRB1*15:03 [4]): 0.1%
- Binding Score (MHC-II DRB1*15:01 [5]): 2.4%
- Binding Score (MHC-II DRB1*11:01 [6]): 5.4%
- Stability Index (MHC-II DRB1*04:01 [7]): 5.5
- Stability Index (MHC-II DRB1*07:01 [8]): 0.0
- Stability Index (MHC-II DRB1*03:01 [9]): 14.2
- Stability Index (MHC-II DRB1*15:03 [10]): 0.1
- Stability Index (MHC-II DRB1*15:01 [11]): 2.9
- Stability Index (MHC-II DRB1*11:01 [12]): 0.2

Sequence: IARYIRLHPTHYSIR [synthetic wild type FVIII 15 mer peptide]
- Binding Score (MHC-II DRB1*04:01 [1]): 61.3%
- Binding Score (MHC-II DRB1*07:01 [2]): 0.0%
- Binding Score (MHC-II DRB1*03:01 [3]): 1.0%
- Binding Score (MHC-II DRB1*15:03 [4]): 103.9%
- Binding Score (MHC-II DRB1*15:01 [5]): 3379.6%
- Binding Score (MHC-II DRB1*11:01 [6]): 150.5%
- Stability Index (MHC-II DRB1*04:01 [7]): 38.8
- Stability Index (MHC-II DRB1*07:01 [8]): 0.0
- Stability Index (MHC-II DRB1*03:01 [9]): 0.0
- Stability Index (MHC-II DRB1*15:03 [10]): 124.6
- Stability Index (MHC-II DRB1*15:01 [11]): 4055.5
- Stability Index (MHC-II DRB1*11:01 [12]): 36.2

Sequence: IFNPPIIARYIRLHP [synthetic wild type FVIII 15 mer peptide]
- Binding Score (MHC-II DRB1*04:01 [1]): 1.7%
- Binding Score (MHC-II DRB1*07:01 [2]): 0.0%
- Binding Score (MHC-II DRB1*03:01 [3]): 0.7%
- Binding Score (MHC-II DRB1*15:03 [4]): 3.8%
- Binding Score (MHC-II DRB1*15:01 [5]): 1224.5%
- Binding Score (MHC-II DRB1*11:01 [6]): 61.5%
- Stability Index (MHC-II DRB1*04:01 [7]): 0.0
- Stability Index (MHC-II DRB1*07:01 [8]): 0.0
- Stability Index (MHC-II DRB1*03:01 [9]): 0.0
- Stability Index (MHC-II DRB1*15:03 [10]): 4.5
- Stability Index (MHC-II DRB1*15:01 [11]): 1469.4
- Stability Index (MHC-II DRB1*11:01 [12]): 6.3

Sequence: IIMYSLDGKKWQTYR [synthetic wild type FVIII 15 mer peptide]
- Binding Score (MHC-II DRB1*04:01 [1]): 8.3%
- Binding Score (MHC-II DRB1*07:01 [2]): 0.0%
- Binding Score (MHC-II DRB1*03:01 [3]): 6.0%
- Binding Score (MHC-II DRB1*15:03 [4]): 47.8%
- Binding Score (MHC-II DRB1*15:01 [5]): 1853.0%
- Binding Score (MHC-II DRB1*11:01 [6]): 23.3%
- Stability Index (MHC-II DRB1*04:01 [7]): 0.7
- Stability Index (MHC-II DRB1*07:01 [8]): 0.1
- Stability Index (MHC-II DRB1*03:01 [9]): 1.7
- Stability Index (MHC-II DRB1*15:03 [10]): 57.3
- Stability Index (MHC-II DRB1*15:01 [11]): 2223.6
- Stability Index (MHC-II DRB1*11:01 [12]): 1.4

Sequence: KMVYEDTLTLFPFSG [synthetic wild type FVIII 15 mer peptide]
- Binding Score (MHC-II DRB1*04:01 [1]): 29.7%
- Binding Score (MHC-II DRB1*07:01 [2]): 0.0%
- Binding Score (MHC-II DRB1*03:01 [3]): 57.6%
- Binding Score (MHC-II DRB1*15:03 [4]): 0.0%
- Binding Score (MHC-II DRB1*15:01 [5]): 3.0%
- Binding Score (MHC-II DRB1*11:01 [6]): 11.7%
- Stability Index (MHC-II DRB1*04:01 [7]): 8.3
- Stability Index (MHC-II DRB1*07:01 [8]): 0.0
- Stability Index (MHC-II DRB1*03:01 [9]): 21.0
- Stability Index (MHC-II DRB1*15:03 [10]): 0.0
- Stability Index (MHC-II DRB1*15:01 [11]): 0.2
- Stability Index (MHC-II DRB1*11:01 [12]): 0.0
